The values below come from ChEMBL document CHEMBL5335868, “Exploring Scaffold Hopping for Novel 2-(Quinolin-4-yloxy)acetamides with Enhanced Antimycobacterial Activity” (ACS Med Chem Lett, 2024).

Converted amounts (≈) assume the structure as drawn.

What all share (assay type): functional
Assay [1] concerns Mycobacterium tuberculosis. Kind of assay: Antibacterial activity against multi-drug resistant Mycobacterium tuberculosis clinical isolate PT2 assessed as bacterial growth inhibition measured after 7 days by resazurin based assay. The conditions noted are these: 168 h, time 7 day. Background: Resazurin is reduced to fluorescent resorufin, in cell work by metabolically active cells.

The subject of assay [2] is Mycobacterium tuberculosis. Kind of assay: Antibacterial activity against multi-drug resistant Mycobacterium tuberculosis clinical isolate PT12 assessed as bacterial growth inhibition measured after 7 days by resazurin based assay. Conditions: 168 h, time 7 day.
Assay [3] has as its system Mycobacterium tuberculosis. Put plainly: Antibacterial activity against multi-drug resistant Mycobacterium tuberculosis clinical isolate PT20 assessed as bacterial growth inhibition measured after 7 days by resazurin based assay. Conditions: 168 h, time 7 day.
Assay [4] concerns Mycobacterium tuberculosis. Kind of assay: Antibacterial activity against qcrB-resistant Mycobacterium tuberculosis harbouring T313A mutant assessed as bacterial growth inhibition measured after 7 days by resazurin based assay. The conditions noted are these: time 7 day.

Consider `COc1ccc2nc(C)cc(OCC(=O)Nc3ccc(N4CCC(c5ccc(OC(F)(F)F)cc5)CC4)cc3)c2c1`, for which the MIC (commonly the lowest concentration found to suppress growth) was less than 0.02 µM in assay [1], less than 0.02 µM in assay [2], less than 0.02 µM in assay [3] and more than 8.8 µM in assay [4].

Regarding `Cc1cc(OCC(=O)Nc2ccc(N3CCC(c4ccccc4)CC3)cc2)c2cc(Br)ccc2n1`, the MIC is less than 0.02 µM in assay [1], less than 0.02 µM in assay [2], less than 0.02 µM in assay [3] and more than 9.4 µM in assay [4].

For the molecule `COc1ccc2nc(C)cc(OCC(=O)Nc3ccc(N4CCC(c5ccccc5)CC4)cc3)c2c1`, the MIC in assay [1] is less than 0.02 µM; in assay [2] it was less than 0.02 µM; in assay [3], less than 0.02 µM; in assay [4], more than 10.4 µM.

As to `Cc1cc(OCC(=O)Nc2ccc(N3CCC(c4ccccc4)CC3)cc2)c2cc(Cl)ccc2n1`, the MIC in assay [1] was less than 0.02 µM; in assay [2], less than 0.02 µM; in assay [3], less than 0.02 µM; in assay [4], more than 10.3 µM.

Turning to `NNC(=O)c1ccncc1` [ISONIAZID], the MIC was determined as 146 µM (≈ 20 µg/mL) in assay [2] and 2.3 µM (≈ 0.315 µg/mL) in assay [4].

As to `CO[C@H]1/C=C/O[C@@]2(C)Oc3c(C)c(O)c4c(O)c(c(/C=N/N5CCN(C)CC5)c(O)c4c3C2=O)NC(=O)/C(C)=C\C=C\[C@H](C)[C@H](O)[C@@H](C)[C@@H](O)[C@@H](C)[C@H](OC(C)=O)[C@@H]1C` [RIFAMPIN], the MIC in assay [1], in assay [2] and in assay [3] was more than 48.6 µM throughout.
